According to patent US8247541B2, “Plant compositions enriched in dehydrosoyasaponin I (D-I) and methods of producing such compositions” (Her Majesty the Queen in right of Canada, as represented by …, priority 2007, dated 2012):
“Also recorded” adds a separate entry of the source. Marks after values point to notes of the source that are not given here.

Columns and labels:
[1] = Light treatment of soyasaponin extracts/solutions followed by HPLC/ELSD (peak area ratio to internal standard alpha-hederin); assay type: physicochemical; details: 80% methanol; for D-I/D-I + S-I + S-VI / HPLC/ELSD component peak area to internal standard ratio, D-I / HPLC/ELSD component peak area to internal standard ratio, S-I / HPLC/ELSD component peak area to internal standard ratio, S-VI / HPLC/ELSD component peak area to internal standard ratio, total soyasaponins / HPLC/ELSD component peak area to internal standard ratio, unretained: 2 days fluorescent light
Procedure: HPLC and mass spectrometry. HP-20 MeOH samples (N=3) were prepared in 80% methanol at 8 mg/mL ( ? -hederin at 0.25 mg/mL) and syringe filtered (0.45 μm pore size, nylon membrane type, Chromatographic Specialties, Brockville, ON) into 0.25 mL glass autosampler vial inserts (Fisher no. 03-375-3A). The solutions were maintained at 15° C. before injection ([…] volume). The instrument consisted of an Alliance 2690 separations module (Waters Canada, Mississauga, ON) equipped with vacuum solvent degassing, a Waters 996 photodiode array detector (PDA) and a PL-EMD-960 evaporative light scattering detector (ELSD) (Polymer Laboratories, Amherst, Mass.) controlled by Waters Millennium software. Settings for the ELSD were attenuation=1, time constant=1 second, temperature=90°, PMT level=6 and airflow=4 liters/min. A reversed phase C-18 Symmetry™ column (3.0×150 mm, 5 μm particle size) purchased from Waters Canada and maintained at 30° C. was used. The mobile phase consisted of 0.05% trifluoroacetic acid (TFA) in water (solvent A) and 0.05% TFA in acetonitrile (solvent B), delivered at a flow rate of 0.4 mL/min. The gradient elution program consisted of 95% A and 5% B at time 0. After 10 min, the composition was 65% A and 35% B (linear, curve 6 gradient). At that time, the linear gradient progressed to 50% A and 50% B over 15 min and to 5% A-95% B over 5 min before reverting to 95% A and 5% B from 35 to 43 min. Mean values of the peak area ratios from single analysis of the three samples from each variety were reported. […]
To further investigate the possibility of S-VI undergoing visible-light-mediated phototransformation to D-I, a source of the unstable S-VI was required as well as other chromatographic fractions that might contain a photosensitizer. Starting with defatted Amit chickpea flour and with brief (minimal) exposure to visible laboratory light, we therefore isolated by the traditional hot methanol and Diaion HP-20 procedures (of Table 1) a dried HP-20 MeOH extract containing S-VI. The earlier-eluting aqueous methanol fractions (also isolated in powder form) were additionally obtained as a potential source of the photosensitizer, in addition to the chloroform extract from the defatting step. Three extraction and isolation experiments were completed (prep A, B and E). Aqueous methanol fractions (30% MeOH and <30% MeOH) containing non-saponin components (see example 7) were additionally available from an experiment on the same flour but these fractions had been isolated after exposure of the crude methanol extract to light (see Table 7).
Three concentrations of a 30% MeOH isolate were used for comparison (two concentrations were previously employed in Table 10). […] D-I to internal standard ratios were 3.3-4, equivalent to the ratios obtained in tests 3 and 4 with the aqueous methanol additions (see also trial 3 of Table 10).

[2] = Solubility of photosensitizer in extraction solvents; assay type: physicochemical
[3] = target: calcium-dependent potassium channels (Homo sapiens, UniProt Q12791+Q16558); details: cited from earlier work
[4] = tested on: stored product insect pests; details: D-I isolated from pea; cited from earlier work
[5] = potential photosensitizer 10 μM added to 100% MeOH fraction (3 mg) of Amit chickpea
[6] = potential photosensitizer 50 μM added to 100% MeOH fraction (3 mg) of Amit chickpea
[7] = potential photosensitizer 100 μM added to 100% MeOH fraction (3 mg) of Amit chickpea
[8] = potential photosensitizer 50 μM added to 100% MeOH (2.98 mg) + 30% MeOH (4.47-4.58 mg) fractions

Chain of calcium-dependent potassium channels (Q12791 whole entry): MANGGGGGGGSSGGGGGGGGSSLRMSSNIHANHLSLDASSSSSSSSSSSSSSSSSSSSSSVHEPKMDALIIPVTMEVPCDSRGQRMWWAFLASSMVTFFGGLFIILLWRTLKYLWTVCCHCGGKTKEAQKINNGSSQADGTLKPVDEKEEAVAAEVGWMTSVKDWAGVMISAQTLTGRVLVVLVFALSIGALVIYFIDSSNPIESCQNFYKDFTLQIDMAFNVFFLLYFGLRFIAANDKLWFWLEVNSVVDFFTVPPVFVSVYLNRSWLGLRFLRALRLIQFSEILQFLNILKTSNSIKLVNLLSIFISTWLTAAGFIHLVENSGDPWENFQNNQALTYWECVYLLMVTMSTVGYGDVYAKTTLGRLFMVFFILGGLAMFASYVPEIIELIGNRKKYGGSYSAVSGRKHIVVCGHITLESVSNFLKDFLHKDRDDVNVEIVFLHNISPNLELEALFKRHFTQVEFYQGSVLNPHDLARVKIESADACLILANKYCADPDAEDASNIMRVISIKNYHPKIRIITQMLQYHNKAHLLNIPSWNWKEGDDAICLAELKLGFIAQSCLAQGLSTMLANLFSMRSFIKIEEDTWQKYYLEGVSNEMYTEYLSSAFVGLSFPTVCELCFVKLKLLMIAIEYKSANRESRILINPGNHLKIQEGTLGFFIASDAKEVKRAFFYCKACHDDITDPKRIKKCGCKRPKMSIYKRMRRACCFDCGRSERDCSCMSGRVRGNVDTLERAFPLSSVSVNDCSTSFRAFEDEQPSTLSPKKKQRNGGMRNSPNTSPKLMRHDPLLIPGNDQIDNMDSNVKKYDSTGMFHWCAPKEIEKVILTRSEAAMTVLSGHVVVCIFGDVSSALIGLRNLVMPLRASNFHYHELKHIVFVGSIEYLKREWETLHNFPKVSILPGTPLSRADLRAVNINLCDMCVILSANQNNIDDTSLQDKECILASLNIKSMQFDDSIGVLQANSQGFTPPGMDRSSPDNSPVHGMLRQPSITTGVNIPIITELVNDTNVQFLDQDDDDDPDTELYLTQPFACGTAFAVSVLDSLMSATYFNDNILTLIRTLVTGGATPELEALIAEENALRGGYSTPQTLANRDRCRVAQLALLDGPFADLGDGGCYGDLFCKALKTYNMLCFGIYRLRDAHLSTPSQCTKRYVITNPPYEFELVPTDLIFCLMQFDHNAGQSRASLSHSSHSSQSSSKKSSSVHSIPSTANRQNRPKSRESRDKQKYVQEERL
Chain of calcium-dependent potassium channels (Q16558 whole entry): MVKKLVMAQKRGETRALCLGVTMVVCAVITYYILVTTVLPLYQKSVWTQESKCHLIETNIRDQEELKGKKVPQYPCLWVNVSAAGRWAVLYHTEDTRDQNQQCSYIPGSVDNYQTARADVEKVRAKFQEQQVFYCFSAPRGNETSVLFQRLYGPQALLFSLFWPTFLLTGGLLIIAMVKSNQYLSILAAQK

Row | Compound | D-I/D-I + S-I + S-VI [1, 5] | HPLC/ELSD component peak area to internal standard ratio, D-I [1, 5] | HPLC/ELSD component peak area to internal standard ratio, S-I [1, 5] | HPLC/ELSD component peak area to internal standard ratio, S-VI [1, 5] | HPLC/ELSD component peak area to internal standard ratio, total soyasaponins [1, 5] | HPLC/ELSD component peak area to internal standard ratio, unretained [1, 5] | D-I/D-I + S-I + S-VI [1, 6] | HPLC/ELSD component peak area to internal standard ratio, D-I [1, 6] | HPLC/ELSD component peak area to internal standard ratio, S-I [1, 6] | HPLC/ELSD component peak area to internal standard ratio, S-VI [1, 6] | HPLC/ELSD component peak area to internal standard ratio, total soyasaponins [1, 6] | HPLC/ELSD component peak area to internal standard ratio, unretained [1, 6] | D-I/D-I + S-I + S-VI [1, 7] | HPLC/ELSD component peak area to internal standard ratio, D-I [1, 7] | HPLC/ELSD component peak area to internal standard ratio, S-I [1, 7] | HPLC/ELSD component peak area to internal standard ratio, S-VI [1, 7] | HPLC/ELSD component peak area to internal standard ratio, total soyasaponins [1, 7] | HPLC/ELSD component peak area to internal standard ratio, unretained [1, 7] | other results
1 | Cc1cc2nc3c(=O)[nH]c(=O)nc-3n(C[C@H](O)[C@H](O)[C@H](O)COP(=O)(O)OP(=O)(O)OC[C@H]3O[C@@H](n4cnc5c(N)ncnc54)[C@H](O)[C@@H]3O)c2cc1C [FAD] | 0.3 | 3.3 | 6.8 | <0.003 | 10.1 | 5.1 | 0.4 | 3.0 | 5.5 | <0.003 | 8.6 | 5.6 | 0.4 | 2.8 | 4.0 | <0.003 | 6.7 | 6.9 | 
2 | Cc1cc2nc3c(=O)[nH]c(=O)nc-3n(C[C@H](O)[C@H](O)[C@H](O)COP(=O)(O)O)c2cc1C [FMN] | 0.3 | 3.3 | 6.5 | <0.003 | 9.9 | 4.8 | 0.4 | 2.9 | 4.5 | <0.003 | 7.4 | 5.1 | 0.5 | 1.8 | 0.3^f | <0.003 | 2.1 | 6.5 | 
3 | CC1=C(O)C(=O)C[C@H](O[C@@H]2CC(C)(C)C[C@H]3C4=CC[C@@H]5[C@@]6(C)CC[C@H](O[C@@H]7O[C@H](C(=O)O)[C@@H](O)[C@H](O)[C@H]7O[C@@H]7O[C@H](CO)[C@H](O)[C@H](O)[C@H]7O[C@@H]7O[C@@H](C)[C@H](O)[C@@H](O)[C@H]7O)[C@](C)(CO)[C@@H]6CC[C@@]5(C)[C@]4(C)CC[C@@]23C)O1 [S-VI, soyasaponin VI] |  |  |  |  |  |  |  |  |  |  |  |  |  |  |  |  |  |  | stability to fluorescent light ([1]; laboratory fluorescent light levels, room temperature, a few days): labile
4 | COc1c2ccoc2cc2oc(=O)ccc12 [bergapten] | 0.1 | 1.6 | 8.2 | 1.2 | 11.0 | 4.8 | 0.1 | 1.2 | 6.0 | 1.2 | 8.4 | 3.8 | 0.2 | 1.7 | 8.0 | 1.4 | 11.1 | 4.4 | D-I/D-I + S-I + S-VI [1, 8]: 0.3; HPLC/ELSD component peak area to internal standard ratio, D-I [1, 8]: 3.6; HPLC/ELSD component peak area to internal standard ratio, S-I [1, 8]: 7.4; HPLC/ELSD component peak area to internal standard ratio, S-VI [1, 8]: <0.003; HPLC/ELSD component peak area to internal standard ratio, total soyasaponins [1, 8]: 11.0; HPLC/ELSD component peak area to internal standard ratio, unretained [1, 8]: 70.7
5 | Cc1cc2nc3c(=O)[nH]c(=O)nc-3n(C[C@H](O)[C@H](O)[C@H](O)CO)c2cc1C [riboflavin] |  |  |  |  |  |  |  |  |  |  |  |  |  |  |  |  |  |  | solubility in 80% methanol ([2]; 80% methanol): soluble; solubility in chloroform ([2]; chloroform): sparingly soluble
6 | dehydrosoyasaponin I [D-I] |  |  |  |  |  |  |  |  |  |  |  |  |  |  |  |  |  |  | activity on calcium-dependent (calcium-activated) potassium channels ([3]; D-I isolated from leaves of Desmodium adscendens): high-affinity activator; also recorded: potent calcium-activated potassium channel opener; potency as a potassium channel opener relative to S-I ([3]; compared with S-I): 60 fold; insecticidal and antifeedant properties [4]: insecticidal and antifeedant properties
